Experimental data as given in article PMC7397040, “New Copper(I) Complex with a Coumarin as Ligand with Antibacterial Activity against Flavobacterium psychrophilum” (Molecules, 2020).
Values after ≈ are worked out from the molar mass of the structure shown. Read-outs that look alike come from different tables or passages of the source. Marks after values point to notes of the source that are not given here.

What was measured:
[1] = set-up: method as in PMID 30177987; settings: versus Ag/AgCl in CH2Cl2 ref 18; cited from earlier work
[2] = tested on: Flavobacterium psychrophilum 10094; assay: Antibacterial test (microdilution: MIC, MBC, IC50); type: cell-based; settings: for MIC: F. psychrophilum 10094, 72 h post-incubation, visual; for MIC / MBC: n = 3; for Amount Cu in MBC / Amount Cu in MIC / Amount Total in IC50 / Amount Total in MBC / Amount Total in MIC: F. psychrophilum; for Amount Cu in MBC / Amount Cu in MIC: amount of copper contained; for Amount Total in IC50 / Amount Total in MBC / Amount Total in MIC: total compound
Method: A bacterial strain of Flavobacterium psychrophilum (ETECMA) originally isolated from Salmon Coho (Oncorhynchus kisutch) in 2008 in Chiloe, Chile, was used for antibacterial test. […] The strain was cultivated in TYES broth (pH = 7.2) at 15 °C for 48 h with stirring at 180 rpm.
To determine MIC, MBC and IC50 of complex and its precursors, microdilution method was performed with some modifications. F. psychrophilum 10094 (0.4 OD600 nm = 1 × 10^8 CFU/mL, approximately) was inoculated in TYES broth pH 7.2 to 1% cell suspension in 96-well plates (Falcon) and treated with complex and its precursors in serial concentrations between 512 μg/mL to 2 μg/mL and incubated for 72 h at 15 °C with agitation at 180 rpm. The MIC was determined as the lowest compounds concentrations which inhibited bacterial grow by visual comparison with the negative control (TYES broth). […] The MBC was determined as the minimum concentration of the compounds at which the bacterial colony count was diminish to 99.9%. For determination of the half-maximal inhibitory concentration (IC50) of compounds on F. psychrophilum, the OD600 nm of each wells was measured using Nanoquant Infinite M200 Pro (TECAN, Grödig, Austria). For the correct calculation of the OD of each concentration of each compound, wells with TYES medium were used with each concentration without inoculating with F. psychrophilum, this control OD was subtracted obtaining the final OD. Data were analyzed using the GraphPad Prism program 5.0.

[3] = tested on: Chinook salmon embryo (CHSE-214) cells; assay: cells; settings: for toxicity (in words): CHSE-214, 512 to 2 μg/mL, 24 h; for IC50 (cellular): CHSE-214, 24 h at 16 °C, n = 6
Method: (§1) Since F. psychrophilum is a bacterial pathogen that affects a wide variety of salmonids, we evaluated the toxicity of the [Cu(NN1)2]ClO4 complex in three different cell lines, Chinook salmon embryo (CHSE-214), Salmon Head Kidney-1 (SHK-1) and intestinal epithelial cell line (RT-GUT). For this experiment 1 × 10^5 cells were treated with the different compounds (coumarin, Cu(I) salt and copper (I) complex) in a range of concentrations between 512 μg/mL and 2 μg/mL, incubated at 16 °C for 24 h.
(§2) 1 × 10^5 Cells were seeded and incubated at 16 °C for 24 h. Later, the cells were treated with compounds in concentrations from 512 μg/mL to 2 μg/mL solubilized in dimethyl sulfoxide (DMSO, Merck, Darmstadt, Germany) and incubated at 16 °C for 24 h. Subsequently, the cells were collected, pelleted and resuspended in IF buffer (1X buffer and 2% fetal bovine serum) and 1 µL propidium iodide (PI, 1 mg/mL) was added. The cellular viability (negative to PI) was analyzed by flow cytometer using FACSCanto II Cytometer (BD biosciences, University of Santiago of Chile, Santiago, RM, Chile). For positive control, cells were incubated without compounds; for death control, cells were incubated with 50% ethanol; medium control cells were treated with medium containing 1% of DMSO. To calculate the IC50 of compounds in the cell lines, they were analyzed using GraphPad Prism program 5.0 (GraphPad Software, San Diego, CA, USA), the concentrations were transformed into log (10) and the number of events normalized in percentage, for the calculation of IC50 a nonlinear regression was performed.

[4] = tested on: Salmon Head Kidney-1 (SHK-1) cells; assay: cells; settings: for toxicity (in words): SHK-1, 512 to 2 μg/mL; for IC50 (cellular): SHK-1, 24 h at 16 °C, n = 6
Method: as §1, §2

[5] = tested on: intestinal epithelial cell line (RT-GUT); assay: cells; settings: for toxicity (in words) / IC50 (cellular): RT-GUT; for toxicity (in words): 512 to 2 μg/mL; for IC50 (cellular): 24 h at 16 °C, n = 6
Method: as §1, §2

[6] = Stability in solution by UV-Vis spectra; type: physicochemical; settings: 72 h after the solution was prepared, CHCl3, air-exposed, room temperature
Method: The spectral region below 400 nm in complex correspond at π to π* intraligand transition bands, which are similar profile of free ligand, but undergo a red-shift upon complexation to copper(I) in around 20 nm.
All the chemicals were purchased commercially and used without further purification. ^1H, ^13C NMR and 2D spectra were recorded on a Bruker Avance Neo 400 MHz spectrometer (400.133 MHz for ^1H, 40.559 MHz for ^15N and 100.613 MHz for ^13C, (University of Santiago of Chile, Santiago, RM, Chile) equipped with a 5 mm multinuclear broad-band dual probehead, incorporating a z-gradient coil. All the measurement was done in CDCl3 at 300 K. Chemical shifts (in ppm) for ^1H and ^13C were calibrated respect to the residual protonated signal of the solvent (7.26 and 77 ppm respectively) and reported relative to Me4Si. The ^15N signal in ^1H ^15N HMBC were calibrated relative to CH3NO2 (90%) in CDCl3). The following abbreviations were used to explain the multiplicities: s = singlet, d = doublet, m = multiplet. […] Electrochemical behavior was studied by cyclic voltammetry using a potentiostat CHI 620E by CH instrument equipment supplied with the electrochemical analyzer CHI software (University of Santiago of Chile, Santiago, RM, Chile). […]

[7] = Cyclic voltammetry, Cu(II)/Cu(I) oxidation potential; type: physicochemical; settings: vs Ag/AgCl, CH2Cl2, 0.1 M TBAP, quasireversible, ΔE = 114 mV
Method: Voltammetry studies were also performed in order to determine the effect of new NN1 ligand on the Cu(II)/Cu(I) oxidation potential considering the well-known fact of high influence of ligands on the metal-centered HOMO energy. Consequently, measurements were registered at room temperature in −1.10 to +1.30 V vs Ag/AgCl potential range.
All the chemicals were purchased commercially and used without further purification. ^1H, ^13C NMR and 2D spectra were recorded on a Bruker Avance Neo 400 MHz spectrometer (400.133 MHz for ^1H, 40.559 MHz for ^15N and 100.613 MHz for ^13C, (University of Santiago of Chile, Santiago, RM, Chile) equipped with a 5 mm multinuclear broad-band dual probehead, incorporating a z-gradient coil. All the measurement was done in CDCl3 at 300 K. Chemical shifts (in ppm) for ^1H and ^13C were calibrated respect to the residual protonated signal of the solvent (7.26 and 77 ppm respectively) and reported relative to Me4Si. The ^15N signal in ^1H ^15N HMBC were calibrated relative to CH3NO2 (90%) in CDCl3). […] Electronic spectra were recorded on a PerkinElmer UV-VIS Lambda 25 spectrophotometer (University of Santiago of Chile, Santiago, RM, Chile) at room temperature, wavelength range between 200 and 1100 nm from 1.5 × 10^−5 mol/L solutions in dichloromethane to NN1 and [Cu(NN1)2]ClO4. […]

[8] = F. psychrophilum 10094, 72 h post-incubation at 15 °C, OD600, n = 3
[9] = F. psychrophilum 10094, colony count diminished to 99.9%

SMILES | IC50 (bacterial) [2, 8] | MIC [2] | MBC [2, 9] | Amount Cu in MBC [2] | Amount Cu in MIC [2] | Amount Total in IC50 [2] | Amount Total in MBC [2] | Amount Total in MIC [2] | toxicity (in words) [3] | IC50 (cellular) [3] | toxicity (in words) ([4]; 24 h) | IC50 (cellular) [4] | toxicity (in words) ([5]; 24 h) | IC50 (cellular) [5] | further results
[Cu+].[O-][Cl+3]([O-])([O-])[O-].c1ccc2nc(-c3ccc4ccccc4n3)ccc2c1.c1ccc2nc(-c3ccc4ccccc4n3)ccc2c1 [[Cu(biq)2]ClO4] | – | – | – | – | – | – | – | – | – | – | – | – | – | – | E1/2 [1]: 0.96 V
O=c1ccc2cc(N=Cc3ccc4ccccc4n3)ccc2o1.O=c1ccc2cc(N=Cc3ccc4ccccc4n3)ccc2o1.[Cu+].[O-][Cl+3]([O-])([O-])[O-] [[Cu(NN1)2]ClO4] | 16.1 ± 0.9 ^c µg/mL | 32 µg/mL | 32 µg/mL | 2.7 µg/mL | 2.7 µg/mL | 16.1 µg/mL | 32 µg/mL | 32 µg/mL | concentration-dependent toxicity was observed | 29.1 ± 1.4 ^b µg/mL | concentration-dependent toxicity was observed | 30.8 ± 1.3 ^b µg/mL | concentration-dependent toxicity was observed | 53.0 ± 3.1 ^b µg/mL | stability in solution (changes in UV-Vis spectral bands) [6]: No significant changes in the spectral bands; E1/2 Cu(II)/Cu(I) couple [7]: 0.426 V
O=c1ccc2ccccc2o1 [Coumarin, 1-benzopyran-2-one] | – | – | >512 µg/mL | – | – | – | – | – | toxicity was not observed | – | toxicity was not observed | – | toxicity was not observed | – | MBC ([2]; Flavobacterium psychrophilum, 10094, F. psychrophilum 10094, colony count diminished to 99.9%, read-out: MBC): < 512 µg/mL; IC50 ([2]; Flavobacterium psychrophilum, F. psychrophilum 10094, 72 h post-incubation at 15 °C, OD600, n = 3, read-out: IC50 (bacterial)): 160 ± 25.5 µg/mL (≈ 1.09 mM); MIC ([2]; Flavobacterium psychrophilum, read-out: MIC): 512 µg/mL (≈ 3.5 mM); IC50 ([3]; CHSE-214, 24 h, read-out: IC50 (cellular)): > 512 µg/mL; IC50 ([4]; 24 h, read-out: IC50 (cellular)): > 512 µg/mL; IC50 ([5]; Oncorhynchus mykiss, Epithelial cell, 24 h, read-out: IC50 (cellular)): > 512 µg/mL
CC#N.CC#N.CC#N.CC#N.[Cu+].[O-][Cl+3]([O-])([O-])[O-] [[Cu(CH3CN)4]ClO4] | 10.4 ± 0.7 ^b µg/mL | 64 µg/mL | 64 µg/mL | 12.5 µg/mL | 12.5 µg/mL | 10.4 µg/mL | 64 µg/mL | 64 µg/mL | concentration-dependent toxicity was observed | 59.4 ± 4.1 ^a µg/mL | concentration-dependent toxicity was observed | 159 ± 44.6 ^a µg/mL | concentration-dependent toxicity was observed | 233.9 ± 19.5 ^a µg/mL | –
